Laboratory results taken from the supplement of paper PMC4862054.

How the values were obtained:
Details in all cases: incubation time: 72 h
BT-474 [1] = assay: normalised response (% of control), CellTox Green; higher = less cell death (100 = DMSO, 0 = benzethonium chloride kill control)
Procedure, shortened: (§1)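 CellTox Green fluorescence (485/520 nm) and, after 10 min at room temperature, CellTiter-Glo luminescence were read from breast cancer cell lines incubated 72 h in 384-well plates. Cells were seeded as 20 µl suspension onto compound at 5 concentrations in 10-fold steps over a 10,000-fold range chosen per compound. Each plate was normalised to 0.1 % DMSO (100) and a positive kill control (0). Values are normalised signals, one per concentration.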

BT-549 [2] = assay: as above
Procedure, shortened: as §1

CAL-120 [3] = assay: as above
Procedure, shortened: as §1

CAL-148 [4] = assay: as above
Procedure, shortened: as §1

CAL-51 [5] = assay: as above
Procedure, shortened: as §1

CAL-85-1 [6] = assay: as above
Procedure, shortened: as §1

DU-4475 [7] = assay: as above
Procedure, shortened: as §1

HCC1143 [8] = assay: as above
Procedure, shortened: as §1

HCC1599 [9] = assay: as above
Procedure, shortened: as §1

HCC1937 [10] = assay: as above
Procedure, shortened: as §1

HDQ-P1 [11] = assay: as above
Procedure, shortened: as §1

Hs578T [12] = assay: as above
Procedure, shortened: as §1

MCF-10A [13] = assay: as above
Procedure, shortened: as §1

MDA-MB-231 [14] = assay: as above
Procedure, shortened: as §1

MDA-MB-436 [15] = assay: as above
Procedure, shortened: as §1

MDA-MB-453 [16] = assay: as above
Procedure, shortened: as §1

MDA-MB-468 [17] = assay: as above
Procedure, shortened: as §1

MFM-223 [18] = assay: as above
Procedure, shortened: as §1

BT-474 [19] = assay: normalised response (% of control), CellTiter-Glo; higher = more viable cells (100 = DMSO, 0 = benzethonium chloride kill control)
Method: (§2)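 DSRT, 72 h incubation, CellTox Green / CellTiter-Glo readout. Signal is normalised to DMSO and benzethonium chloride controls. Value is the normalised response at dose 3.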

BT-549 [20] = assay: as above
Method: as §2

CAL-120 [21] = assay: as above
Method: as §2

CAL-148 [22] = assay: as above
Method: as §2

CAL-51 [23] = assay: as above
Method: as §2

CAL-85-1 [24] = assay: as above
Method: as §2

DU-4475 [25] = assay: as above
Method: as §2

HCC1143 [26] = assay: as above
Method: as §2

HCC1599 [27] = assay: as above
Method: as §2

HCC1937 [28] = assay: as above
Method: as §2

HDQ-P1 [29] = assay: as above
Method: as §2

Hs578T [30] = assay: as above
Method: as §2

MCF-10A [31] = assay: as above
Method: as §2

MDA-MB-231 [32] = assay: as above
Method: as §2

MDA-MB-436 [33] = assay: as above
Method: as §2

MDA-MB-453 [34] = assay: as above
Method: as §2

MDA-MB-468 [35] = assay: as above
Method: as §2

MFM-223 [36] = assay: as above
Method: as §2

SK-BR-3 = assay: as above
Method: as §2

| Compound | normalised response (BT-474 [1]) [%] | normalised response (BT-549 [2]) [%] | normalised response (CAL-120 [3]) [%] | normalised response (CAL-148 [4]) [%] | normalised response (CAL-51 [5]) [%] | normalised response (CAL-85-1 [6]) [%] | normalised response (DU-4475 [7]) [%] | normalised response (HCC1143 [8]) [%] | normalised response (HCC1599 [9]) [%] | normalised response (HCC1937 [10]) [%] | normalised response (HDQ-P1 [11]) [%] | normalised response (Hs578T [12]) [%] | normalised response (MCF-10A [13]) [%] | normalised response (MDA-MB-231 [14]) [%] | normalised response (MDA-MB-436 [15]) [%] | normalised response (MDA-MB-453 [16]) [%] | normalised response (MDA-MB-468 [17]) [%] | normalised response (MFM-223 [18]) [%] | normalised response (BT-474 [19]) [%] | normalised response (BT-549 [20]) [%] | normalised response (CAL-120 [21]) [%] | normalised response (CAL-148 [22]) [%] | normalised response (CAL-51 [23]) [%] | normalised response (CAL-85-1 [24]) [%] | normalised response (DU-4475 [25]) [%] | normalised response (HCC1143 [26]) [%] | normalised response (HCC1599 [27]) [%] | normalised response (HCC1937 [28]) [%] | normalised response (HDQ-P1 [29]) [%] | normalised response (Hs578T [30]) [%] | normalised response (MCF-10A [31]) [%] | normalised response (MDA-MB-231 [32]) [%] | normalised response (MDA-MB-436 [33]) [%] | normalised response (MDA-MB-453 [34]) [%] | normalised response (MDA-MB-468 [35]) [%] | normalised response (MFM-223 [36]) [%] | normalised response (SK-BR-3) [%] |
| --- | --- | --- | --- | --- | --- | --- | --- | --- | --- | --- | --- | --- | --- | --- | --- | --- | --- | --- | --- | --- | --- | --- | --- | --- | --- | --- | --- | --- | --- | --- | --- | --- | --- | --- | --- | --- | --- |
| CN1CCN(c2ccc3nc(-c4c(N)c5c(F)cccc5[nH]c4=O)[nH]c3c2)CC1 [Dovitinib] (100 nM) | 96.5 | 95.3 | 96 | 85.1 | 107 | 90.3 | 100 | 97.1 | 108 | 89.1 | 115 | 93.3 | 102 | 89.5 | 72.4 | 101 | 87.8 | 105 | 104 | 103 | 93.9 | 99.7 | 107 | 94.7 | 97.1 | 103 | 94.2 | 94.8 | 97.3 | 101 | 99.1 | 92.4 | 96.5 | 100 | 97.3 | 100 | 94.7 |
| O=c1[nH]cc(F)c(=O)[nH]1 [Fluorouracil] (100 nM) | 93 | 96.8 | 100 | 102 | 113 | 114 | 106 | 92.6 | 103 | 103 | 105 | 101 | 114 | 111 | 51.5 | 106 | 99.4 | 106 | 103 | 109 | 107 | 111 | 105 | 98.3 | 102 | 109 | 116 | 95.6 | 102 | 105 | 113 | 111 | 105 | 116 | 98 | 104 | 104 |
| Cn1cnc2c(F)c(Nc3ccc(Br)cc3F)c(C(=O)NOCCO)cc21 [MEK-162] (10 nM) | 90.8 | 82.7 | 97.6 | 103 | 112 | 99.8 | 97.6 | 73 | 93 | 78.5 | 102 | 108 | 68.5 | 81.9 | 99.8 | 104 | 125 | 102 | 103 | 94.5 | 97.9 | 101 | 114 | 95.2 | 92.9 | 94.8 | 93.8 | 90.8 | 88.9 | 90.5 | 70.8 | 99.3 | 103 | 105 | 93 | 99.4 | 101 |
| CCOc1cc2ncc(C#N)c(Nc3ccc(OCc4ccccn4)c(Cl)c3)c2cc1NC(=O)/C=C/CN(C)C [Neratinib] (10 nM) | 93.4 | 111 | 104 | 104 | 110 | 112 | 108 | 103 | 104 | 102 | 98.1 | 88.5 | 116 | 120 | 54.2 | 108 | 126 | 94.8 | 101 | 97.9 | 104 | 101 | 91.5 | 102 | 105 | 97.3 | 112 | 95.1 | 83.5 | 99.2 | 98.1 | 100 | 99.7 | 78.3 | 91.7 | 101 | 37.4 |
| COc1ccc(C2=N[C@@H](c3ccc(Cl)cc3)[C@@H](c3ccc(Cl)cc3)N2C(=O)N2CCNC(=O)C2)c(OC(C)C)c1 [Nutlin-3] (100 nM) | 71.6 | 99 | 102 | 97.2 | 97.1 | 102 | 102 | 109 | 102 | 87.5 | 97.3 | 101 | 103 | 100 | 64 | 97.3 | 100 | 95.2 | 101 | 107 | 99.5 | 115 | 64 | 92.4 | 104 | 105 | 105 | 95.4 | 99.9 | 103 | 96.7 | 102 | 102 | 108 | 100 | 102 | 104 |
| COC(=O)C[C@](O)(CCCC(C)(C)O)C(=O)O[C@@H]1C(OC)=C[C@]23CCCN2CCc2cc4c(cc2[C@H]13)OCO4 [Omacetaxine] (100 nM) | 98.3 | 103 | 99.4 | 83.4 | 121 | 10.6 | 97.5 | 72.7 | 112 | 124 | 100 | 38.3 | 97.1 | 92.3 | 77.6 | 110 | 113 | 48.9 | 74.6 | 18.8 | 59 | 40.9 | 19.9 | 6.28 | 4.3 | 44.4 | 24.4 | 41.1 | 31 | 28.2 | 61.5 | 65 | 20 | 56.4 | 15.3 | 55.4 | 44.9 |
| CC(=O)O[C@H]1C(=O)[C@@]2(C)[C@H]([C@H](OC(=O)c3ccccc3)[C@]3(O)C[C@H](OC(=O)[C@H](O)[C@@H](NC(=O)c4ccccc4)c4ccccc4)C(C)=C1C3(C)C)[C@]1(OC(C)=O)CO[C@@H]1C[C@@H]2O [Paclitaxel] (10 nM) | 74.6 | 72.5 | 89.9 | 39.4 | 19.9 | 20.9 | 97.6 | 88.4 | 91.5 | 86.7 | 87.9 | 34.1 | 78.9 | 41 | -40.2 | 92.9 | 41.3 | 59.4 | 60.3 | 34 | 70.1 | 42.7 | 52.7 | 31 | 89 | 42.3 | 80.5 | 68.2 | 69.1 | 43.3 | 52.6 | 62.9 | 43 | 80.2 | 28.7 | 61.6 | 16.9 |
| O=C(c1ccc(OCCN2CCCCC2)cc1)c1c(-c2ccc(O)cc2)sc2cc(O)ccc12 [Raloxifene] (100 nM) | 104 | 92.5 | 98.8 | 101 | 97.2 | 98.3 | 103 | 99.7 | 92.4 | 108 | 90.1 | 94.3 | 93.2 | 98.8 | 107 | 107 | 102 | 91.7 | 101 | 98.3 | 99.1 | 107 | 87.8 | 104 | 100 | 109 | 100 | 104 | 106 | 106 | 103 | 105 | 99.9 | 99.7 | 98.7 | 104 | 104 |
